# Assay results reported in publication PMC1972348, “Pharmacokinetics and cytotoxicity of RSU-1069 in subcutaneous 9L tumours under oxic and hypoxic conditions” (British Journal of Cancer, 1991).
# Like-named read-outs stand apart in the source and are kept apart here.
# Columns and labels:
# sc 9L tumour cells [1] = test system: sc 9L tumour cells; design: method as in Wong et al., 1989; 1990; details: Table I, clamped sc 9L tumours, ref Wong et al., 1989; 1990; cited from earlier work
# [2] = design: method as in Wong et al., 1989; 1990; details: sc 9L tumours, ref Wong et al., 1989; 1990; cited from earlier work
# KHT and RIF tumours = test system: KHT and RIF tumours; design: method as in Bremner et al. (1990); details: tumours clamped 60 min after 80 mg kg-1, ref Bremner et al. (1990); cited from earlier work
# 9L cells = experiment: In vitro colony formation of 9L cells treated at defined oxygen concentrations; assay type: cell-based, rat
# Excerpt: Br 1 acr(91,6,4448?McilnPesLd,19 Pharmacokinetics and cytotoxicity of RSU-1069 in subcutaneous 9L tumours under oxic and hypoxic conditions K-H. Wong',*, C.J. Koch2, C. A. Wallen' & K.T. Wheeler' 'Experimental Radiation Oncology, Department of Radiology, Bowman Gray School of Medicine, Winston-Salem, North Carolina 27103; and 2Department of Radiation Oncology, University of Pennsylvania, Philadelphia, Pennsylvania 19104, USA. Summary The acute toxicity, pharmacokinetics and hypoxic cytotoxicity of RSU-1069 were investigated using the subcutaneous (sc) rat 9L tumour model. The pharmacokinetics were studied after i.p. injection of RSU-1069 (20mgkg-' or 100mgkg-'). […] The 2-nitroimidazoles, originally designed as electron affinic radiosensitisers, have been reported to selectively kill hypoxic cells (Adams et al., 1980). This hypoxic cytotoxicity appears to be related to the anaerobic bioreductive metabolism of the drugs that releases reactive cytotoxic metabolites (Clark et al., 1980; Brown, 1982). By adding an alkylating group to the side chain of a 2-nitroimidazole, Adams et al. (1984a,b) postulated that a more efficient chemopotentiator and killer of hypoxic cells could be made without the compound losing its ability to sensitise hypoxic cells to ionising radiation. RSU-1069 was one of the compounds synthesised to achieve this goal. […]
# sc 9L tumour cells [3] = test system: sc 9L tumour cells; design: AUC30: unit not given beside the values
# Excerpt: (§1) Br 1 acr(91,6,4448?McilnPesLd,19 Pharmacokinetics and cytotoxicity of RSU-1069 in subcutaneous 9L tumours under oxic and hypoxic conditions K-H. Wong',*, C.J. Koch2, C. A. Wallen' & K.T. Wheeler' 'Experimental Radiation Oncology, Department of Radiology, Bowman Gray School of Medicine, Winston-Salem, North Carolina 27103; and 2Department of Radiation Oncology, University of Pennsylvania, Philadelphia, Pennsylvania 19104, USA. Summary The acute toxicity, pharmacokinetics and hypoxic cytotoxicity of RSU-1069 were investigated using the subcutaneous (sc) rat 9L tumour model. The pharmacokinetics were studied after i.p. injection of RSU-1069 (20mgkg-' or 100mgkg-'). […] The 2-nitroimidazoles, originally designed as electron affinic radiosensitisers, have been reported to selectively kill hypoxic cells (Adams et al., 1980). This hypoxic cytotoxicity appears to be related to the anaerobic bioreductive metabolism of the drugs that releases reactive cytotoxic metabolites (Clark et al., 1980; Brown, 1982). By adding an alkylating group to the side chain of a 2-nitroimidazole, Adams et al. (1984a,b) postulated that a more efficient chemopotentiator and killer of hypoxic cells could be made without the compound losing its ability to sensitise hypoxic cells to ionising radiation. RSU-1069 was one of the compounds synthesised to achieve this goal. RSU-1069 has an aziridine group attached via a side chain to a 2-nitroimidazole. […] Although the ability to kill cells in vivo has been studied (Adams et al., 1984a,b; Chaplin et al., 1986; Olive et al., 1987; Cole et al., 1989; Siemann, 1989) the presence of both oxic and hypoxic cells in these tumours has made it difficult to determine if the relative efficiency of RSU-1069 for killing oxic and hypoxic cells in vivo is similar to that reported in vitro. In this report, we used the subcutaneous (sc) 9L tumour model to study the relative ability of RSU-1069 to kill oxic and hypoxic tumours cells in vivo.
# [4] = B16 and HX 118 melanomas, ref Deacon et al., 1986; Walling et al., 1989; cited from earlier work
# [5] = Excerpt: as §1
# [6] = mice, i.p. doses of 50 and 100 mg kg-1, ref Walton & Workman (1988); cited from earlier work
# other in vitro cells = test system: other in vitro cells; design: method as in Stratford et al., 1986; details: ref Stratford et al., 1986; cited from earlier work
# [7] = ref Horwich et al., 1986, cited from earlier work
# [8] = KHT fibrosarcoma, ref Walton & Workman, 1988; cited from earlier work
# hypoxic cells = test system: hypoxic cells; design: method as in Adams et al., 1984a; details: estimated at plasma level of 2-4 µg ml-1, ref Adams et al., 1984a; cited from earlier work
# [9] = 20 mg kg-1 i.p., unclamped tumours
# [10] = 100 mg kg-1 i.p., unclamped tumours
# [11] = both doses (20 and 100 mg kg-1)
smiles,measurement,setting,value
"COCC(O)Cn1ccnc1[N+](=O)[O-] (stereo not shown) [MISO, misonidazole]",AUC30,sc 9L tumour cells [1],877 µg·h/mL
same,time to return to unclamped tumour level after release of the clamp,[2],about 45 min
O=[N+]([O-])c1nccn1CC(O)CN1CC1 (stereo not shown) [RSU-1069],increase in time for tumours to reach four times their treatment size,KHT and RIF tumours,3-4 fold
same,SER in vitro,9L cells; 2.1% O2 vs less than 7.5 x 10(-3)% O2,approximately 50
same,SER in vitro,9L cells; 21% O2 vs less than 7.5 x 10(-3)% O2,approximately 100
same,cell survival,"sc 9L tumour cells [3]; 20 mg kg-1, clamped tumours",approximately 25%
same,cell survival,"sc 9L tumour cells [3]; 20 mg kg-1, unclamped tumours",~100%
same,cell-kill kinetics as a function of clamping time,"sc 9L tumour cells [3]; 50 mg kg-1, clamped for various times",little additional cell kill was achieved after 40 min of clamping
same,surviving fraction,"sc 9L tumour cells [3]; 50 mg kg-1, hypoxic (clamped 2 h)",~0.001
same,surviving fraction,"sc 9L tumour cells [3]; 50 mg kg-1, oxic (unclamped)",about 0.6
same,AUC30,"sc 9L tumour cells [3]; rat, in vivo",0.15
same,efficiency for killing hypoxic sc 9L tumour cells in situ relative to misonidazole or SR2508,"sc 9L tumour cells [3]; rat, in vivo, sc",300-1000 fold
same,"sensitiser enhancement ratio (SER), hypoxic vs oxic sc 9L cells in vivo","sc 9L tumour cells [3]; rat, in vivo, sc",4.8
same,tumour/plasma ratio,[4],3.7-4
same,maximum tumour/plasma ratio,"[5]; 20 mg kg-1, in 60 min",six
same,plasma elimination t1/2,[5]; 20 mg kg-1 i.p.,47.8 ± 6.3 min
same,time to peak plasma concentration,[5]; 20 mg kg-1 i.p.,about 10 min
same,time to peak tumour concentration,[5]; 20 mg kg-1 i.p.,10 min
same,peak plasma concentration,"[5]; 20 mg kg-1 i.p., rat",3 micrograms ml-1
same,peak tumour concentration,[5]; [9],4 micrograms g-1
same,tumour elimination t1/2,[5]; [9],41.9 ± 6.1 min
same,time to return to unclamped tumour concentration after release of the clamp,[5]; 100 mg kg-1,about 60 min
same,tumour/plasma ratio in clamped tumours,"[5]; 100 mg kg-1, about 90 min after clamping",0.1
same,drug concentration in clamped tumours,"[5]; 100 mg kg-1, beyond 120 min after clamping",undetectable
same,peak tumour/plasma ratio,"[5]; 100 mg kg-1, unclamped, in about 45 min",exceeded four
same,time to peak plasma concentration,[5]; 100 mg kg-1 i.p.,approximately 25 min
same,peak plasma concentration,"[5]; 100 mg kg-1 i.p., rat",40 micrograms ml-1
same,tumour elimination t1/2,"[5]; 100 mg kg-1 i.p., tumour clamped 30 min after administration",10.9 ± 1.4 min
same,plasma elimination t1/2,"[5]; 100 mg kg-1 i.p., tumour unclamped",39.3 ± 11.1 min
same,peak tumour concentration,[5]; [10],50 micrograms g-1
same,time to peak tumour concentration,[5]; [10],30 min
same,tumour elimination t1/2,[5]; [10],36.1 ± 9.6 min
same,constant unclamped tumour/plasma ratio after the maximum,[5]; [11],about 2
same,maximum unclamped tumour/plasma ratio,[5]; [11],4-6
same,elimination from clamped sc 9L tumours faster than MISO or SR-2508,"[5]; rat, in vivo",four
same,peak plasma concentration at 100 mg kg-1 relative to 20 mg kg-1,"[5]; rat, in vivo",about 13 times
same,peak tumour concentration at 100 mg kg-1 relative to 20 mg kg-1,"[5]; rat, in vivo",about 13 times
same,difference in the volume of distribution,[6],2 fold
same,increase in the elimination t1/2,[6],37%
same,SER in vitro,other in vitro cells,≤ 100
same,peak plasma level,"[7]; clinical trial, after a 70 mg kg-1 dose (so in the source)",2 to 4 µg/mL
same,dose limited by nongenotoxic side-effects such as emesis,[7]; phase I clinical trial,less than 70 mg m-2
same,tumour/plasma ratio,[8],0.2-0.4
same,radiosensitising enhancement ratio,hypoxic cells,1.2
O=C(Cn1ccnc1[N+](=O)[O-])NCCO [SR-2508],AUC30,sc 9L tumour cells [1],748 µg·h/mL
same,time to return to unclamped tumour level after release of the clamp,[2],about 90 min
